Measured values taken from ChEMBL document CHEMBL1137075, “General model for estimation of the inhibition of protein kinases using Monte Carlo simulations” (J Med Chem, 2004).

Tests used:
[1] = target: Tyrosine-protein kinase Lck (Homo sapiens, UniProt P06239)
Description: Evaluated for inhibition of human p56 Lck tyrosine kinase

[2] = target: Cyclin-dependent kinase 2 (Homo sapiens, UniProt P24941); experiment: Evaluated for inhibition of human cyclin dependent kinase 2 (CDK2)

Tyrosine-protein kinase Lck, sequence (P06239 whole entry): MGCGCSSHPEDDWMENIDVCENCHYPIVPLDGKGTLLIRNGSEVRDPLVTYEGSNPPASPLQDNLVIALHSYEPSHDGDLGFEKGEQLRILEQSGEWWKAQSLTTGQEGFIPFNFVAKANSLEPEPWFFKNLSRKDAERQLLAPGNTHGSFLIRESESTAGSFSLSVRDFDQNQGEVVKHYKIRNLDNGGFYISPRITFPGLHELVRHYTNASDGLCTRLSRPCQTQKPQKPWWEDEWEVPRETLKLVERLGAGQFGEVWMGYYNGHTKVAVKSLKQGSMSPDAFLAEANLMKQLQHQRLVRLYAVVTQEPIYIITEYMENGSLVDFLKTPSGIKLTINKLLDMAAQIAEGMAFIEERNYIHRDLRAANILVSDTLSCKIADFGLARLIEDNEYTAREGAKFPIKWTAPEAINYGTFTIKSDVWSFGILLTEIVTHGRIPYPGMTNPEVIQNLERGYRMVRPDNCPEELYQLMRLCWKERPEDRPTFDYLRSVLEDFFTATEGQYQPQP

IC50 [1] [nM] | IC50 [2] [nM] | Compound
6.2 | – | COc1cc2nc(Nc3c(C)cccc3Cl)c3cnc(CO)n3c2cc1OC
– | 43 | Oc1[nH]c2ccc(Br)cc2c1/N=N/c1ccccc1
3170 | – | c1ccc2c(c1)nc(C1CCCCC1)c1cncn12
3170 | – | c1ccc2c(c1)nc(C1CC1)c1cncn12
– | 60 | COc1ccc2[nH]c(O)c(/N=N/c3ccccc3)c2c1
2680 | – | CCCc1nc2ccccc2n2cncc12
10 | – | COc1cc2nc(Nc3c(C)cccc3Cl)c3cnc(C=O)n3c2cc1OC
– | 46 | Oc1[nH]c2ccccc2c1/N=N/c1ccccc1

Compound | IC50 [1] [nM] | IC50 [2] [nM]
c1cncc(-c2nc3ccccc3n3cncc23)c1 | 820 | –
